Test results as given in patent US20220073557A1, “FLUORINATED BILE ACIDS” (NZP UK LIMITED, priority 2018, published 2022).
Where a name gives a salt, the structure may show the parent alone.

Legend:
[1] = system: sporadic PD patient fibroblasts; test: Mitochondrial membrane potential (MMP, TMRM) in sporadic PD patient fibroblasts; type: cell-based; settings: Homo sapiens, Fibroblast, 24 h; for activity at 60 pM: read-out: MMP Bottom (% of vehicle treated); for activity at 0.3 µM: read-out: MMP Top (% of vehicle treated)
Description: (§1) Fibroblasts were cultured in DMEM (Invitrogen) and routinely subcultured every 3-5 days using trypsin to dissociate them.
Fibroblasts were cultured and plated into a Griener black 384 pClear® plate at 10000 cells per well in 50 μl of media volume. The plates are left overnight in an incubator to allow the fibroblasts to adhere to the plate surface. The following morning the Glucose based medium is replaced with 25 μl of Galactose based media. The plates were then dosed with the compounds using an ECHO® 550 liquid handling system. The wells were dosed to provide an 8-point concentration range of 0.06 nM-300 nM of compound. After dosing the wells are topped up with a further 25 μl of Galactose based medium and then left in an incubator for 24 hours. After 24 hours, the medium is removed from the wells and replaced with 25 ul phenol free Minimal essential medium with 100 nM TMRM (Sigma) and 10 μM Hoechst Stain (Sigma). The plate is returned to the incubator for another hour after which the stain medium is removed and replaced with 25 ul Phenol free MEM. The plate is then imaged using an IN Cell high content microscope (GE Healthcare) with 10 fields of view per well in 2 channels, Cy3 excitation 542 nm, emission 604-64 nm; and the DAPI excitation 350 nm, emission 450-55 nm at 37° C. with CO2. After imaging the plate is disposed of and the images are Data mined using the INCell developer Toolkit (GE Healthcare).
(§2) After the assays had been repeated in triplicate per line and compound the data was then inputted into Graph pad Prism 7 software suite where a dose response curve is generated using the default “[Agonist] vs response (three parameters)” equation.
(§3) From this EC50 values, lowest response and maximal response were taken and used to calculate the Geometric mean between the 5 different lines assessed.
The mitochondrial membrane potential was measured in fibroblasts from 6 (Table 1) or 3 (Table 2) patients with sporadic Parkinson's disease when treated with Compounds of the invention or Comparator compounds. The results are shown in Tables 1 and 2, where “Bottom”=max response with lowest dose of compound (0.06 nM) and “top”=max response with highest dose of compound (300 nM).

[2] = system: sporadic PD patient fibroblasts; test: Cellular ATP levels (ATPlite, normalised to CyQUANT DNA content) in sporadic PD patient fibroblasts; type: cell-based; settings: Homo sapiens, Fibroblast, 24 h; for activity at 60 pM: read-out: Cellular ATP levels Bottom (% of vehicle treated); for activity at 0.3 µM: read-out: Cellular ATP levels Top (% of vehicle treated)
Description: as §1
The ATP protocol is generally as described in Mortiboys et al, “Mitochondrial function and morphology are impaired in parkin-mutant fibroblasts”, Ann Neurol. 2008 November; 64(5):555-65. Briefly, fibroblasts were cultured as and plated into white 384 well plates with 5000 cells per well in 50 μl of media volume. The plates are left overnight in an incubator to allow the fibroblasts to adhere to the plate surface. The following morning the Glucose based medium is replaced with 25 μl of Galactose based medium. The compounds are added to the plates using a ECHO 550 liquid handling system. The wells were dosed to provide an 8-point concentration range of 0.06 nM-300 nM of compound. After dosing the wells are topped up with a further 25 μl of Galactose based medium and then left in an incubator for 24 hours. Following this incubation the medium is removed from the plate and the wells are washed twice with sterile PBS. The wells are filled with 25 μl of Sterile PBS followed by 12.5 μl of Lysis solution from the ATPlite™ Luminescence ATP detection assay system (Perkin Elmer), including 16 cell free wells to use as blank controls. The plate is then placed on a rotary shaker for 5 mins at 700 rpm. Following the shaking 12.5 μl of ATP substrate solution (Perkin Elmer) is added to each well and a further 5 min of shaking. The plate is then placed in darkness for 10 minutes prior to reading. Using a PHERAStar® plate reader, luminescence intensity is recorded. Following the ATP assay the plates are immediately assayed for DNA content in a CyQUANT® assay.
Immediately following The ATP assay DNA content is assessed with the CyQUANT® NF Cell Proliferation Assay Kit (ThermoFisher). CyQUANT® buffer is prepared immediately before the assay and is comprised of 1 ul CyQUANT® dye per ml×1 HBSS solution. 12.5 ul of CyQUANT® buffer is added to each well. Plate left in incubator for 1 hour then read on a PHERAStar® Plate reader with excitation at 497 nm and emission at 520 nm. ATP Quantification for each well is determined using the following formula: […]
as §2, §3
Cellular ATP levels were measured in fibroblasts from 6 (Table 3) or 3 (Table 4) patients with sporadic Parkinson's disease when treated with Compounds of the invention or Comparator compounds. The results are shown in Tables 3 and 4, where “Bottom”=max response with lowest dose of compound (0.06 nM) and “top”=max response with highest dose of compound (300 nM).

[3] = read-out: Cellular ATP levels EC50 (nM)
[4] = 3 sporadic PD patient fibroblasts, read-out: MMP EC50
[5] = max response with highest dose (300 nM), 3 sporadic PD patient fibroblasts
[6] = max response with lowest dose (0.06 nM), 3 sporadic PD patient fibroblasts
[7] = 3 sporadic PD patient fibroblasts, read-out: Cellular ATP levels EC50

Compound: C[C@H](CCC(=O)O)[C@H]1CC[C@H]2[C@@H]3[C@@H](O)C[C@@H]4C[C@H](O)C(F)(F)C[C@]4(C)[C@H]3CC[C@]12C [Compound 9, 2,2-difluoro-3α,7β-dihydroxy-5β-cholanic acid]
- activity at 60 pM [1]: 110%
- EC50 ([1]; read-out: MMP EC50 (nM)): 2.19 nM
- activity at 0.3 µM [1]: 112%
- activity at 60 pM [2]: 99%
- EC50 [2, 3]: 21.3 nM
- activity at 0.3 µM [2]: 103%

Compound: C[C@H](CCC(=O)N1CCC[C@H](C(=O)O)C1)[C@H]1CC[C@H]2[C@@H]3[C@@H](O)C[C@@H]4C[C@@H](O)C(F)(F)C[C@]4(C)[C@H]3CC[C@]12C [Compound 14, Sodium 1-(2,2-difluoro-3β,7β-dihydroxy-5β-cholan-24-oyl)-piperidine-3-carboxylate]
- activity at 60 pM [1]: 94.3%
- EC50 ([1]; read-out: MMP EC50 (nM)): 18.9 nM
- activity at 0.3 µM [1]: 167%
- activity at 60 pM [2]: 107%
- EC50 [2, 3]: 1.3 nM
- activity at 0.3 µM [2]: 127%

Compound: C[C@H](CCC(=O)NCC(=O)O)[C@H]1CCC2C3C(CC[C@@]21C)[C@@]1(C)CC(F)(F)[C@H](O)C[C@H]1C[C@@H]3O (stereo partly drawn) [Compound 17, Sodium N-(2,2-difluoro-3β,7β-dihydroxy-5β-cholan-24-amide)-methylcarboxylic acid]
- activity at 60 pM [1]: 88.9%
- EC50 ([1]; read-out: MMP EC50 (nM)): 128 nM
- activity at 0.3 µM [1]: 152%
- activity at 60 pM [2]: 101%
- EC50 [2, 3]: 17.2 nM
- activity at 0.3 µM [2]: 132%

Compound: C[C@H](CCC(=O)N(C)CCS(=O)(=O)O)[C@H]1CCC2C3C(CC[C@@]21C)[C@@]1(C)CC(F)(F)[C@H](O)C[C@H]1C[C@@H]3O (stereo partly drawn) [Compound 19, Sodium N-(methyl)-N-(2,2-difluoro-3β,7β-dihydroxy-5β-cholan-24-amide) ethylsulfonic acid]
- activity at 60 pM [1]: 95.9%
- EC50 ([1]; read-out: MMP EC50 (nM)): 104 nM
- activity at 0.3 µM [1]: 143%
- activity at 60 pM [2]: 98.8%
- EC50 [2, 3]: 8.9 nM
- activity at 0.3 µM [2]: 122%

Compound: C[C@H](CCC(=O)NCCCS(=O)(=O)O)[C@H]1CC[C@H]2[C@@H]3[C@@H](O)C[C@@H]4C[C@@H](O)C(F)(F)C[C@]4(C)[C@H]3CC[C@]12C [Compound 20, Sodium 3-(2,2-difluoro-3β,7β-dihydroxy-5β-cholan-24-oyl) amino-propanesulfonate]
- activity at 60 pM [1]: 99.8%
- EC50 ([1]; read-out: MMP EC50 (nM)): 17.7 nM
- activity at 0.3 µM [1]: 147%
- activity at 60 pM [2]: 102%
- EC50 [2, 3]: 34.7 nM
- activity at 0.3 µM [2]: 122%

Compound: C[C@H](CCC(=O)NCCOS(=O)(=O)O)[C@H]1CC[C@H]2[C@@H]3[C@@H](O)C[C@@H]4C[C@@H](O)C(F)(F)C[C@]4(C)[C@H]3CC[C@]12C [Compound 22, Sodium N-(2,2-difluoro-3β,7β-dihydroxy-5β-cholan-24-oyl)-2-aminoethyl sulfate]
- activity at 60 pM [1]: 99.3%
- EC50 ([1]; read-out: MMP EC50 (nM)): 45.4 nM
- activity at 0.3 µM [1]: 146%
- activity at 60 pM [2]: 95.9%
- EC50 [2, 3]: 6.2 nM
- activity at 0.3 µM [2]: 116%

Compound: C[C@H](CCC(=O)NCCS(C)(=O)=O)[C@H]1CC[C@H]2[C@@H]3[C@@H](O)C[C@@H]4C[C@@H](O)C(F)(F)C[C@]4(C)[C@H]3CC[C@]12C [Compound 27, N-(2,2-difluoro-3β,7β-dihydroxy-5β-cholan-24-oyl) 2-aminoethyl methyl sulfone]
- EC50 [1, 4]: 171 nM
- activity at 0.3 µM [1, 5]: 159%
- activity at 60 pM [1, 6]: 103%
- EC50 [2, 7]: 16.6 nM
- activity at 0.3 µM [2, 5]: 114%
- activity at 60 pM [2, 6]: 101%

Compound: C[C@H](CCC(=O)N1CCS(=O)(=O)CC1)[C@H]1CCC2C3C(CC[C@@]21C)[C@@]1(C)CC(F)(F)[C@H](O)C[C@H]1C[C@@H]3O (stereo partly drawn) [Compound 30, N-(2,2-difluoro-3β,7β-dihydroxy-5β-cholan-24-oyl)-thiomorpholine-dioxide]
- EC50 [1, 4]: 21 nM
- activity at 0.3 µM [1, 5]: 156%
- activity at 60 pM [1, 6]: 98.4%
- EC50 [2, 7]: 4.2 nM
- activity at 0.3 µM [2, 5]: 115%
- activity at 60 pM [2, 6]: 96.7%
